Experimental data taken from patent publication US6852707B1, “Remedies for hyperammonemia” (Suntory Limited, priority 1998, dated 2005).

Experiments:
[1] = system: rats feeding on high-protein diet; assay: Effects of xylobiose on rats feeding on high-protein diet (Example 2); assay type: in vivo, rat
Protocol: SD Male rats in a growth stage (15 heads) were fed on a high-protein feed (containing 50% casein) and divided in three groups; the first group consisting of 5 rats were administered 0.5% xylobiose; the second group also consisting of 5 rats were administered 1.0% xylobiose; the third was a control group consisting of 5 rats which were administered distilled water; the animals were let to drink these liquids ad libitum for 3 weeks. Throughout the test period, there were no effects on the amounts of feed and water taken by the rats and the increase in their body weight. The cumulative uptake was 4.7±0.2 g for 0.5% xylobiose and 7.5±0.6 g for 1.0% xylobiose; the daily uptake by the two groups was 0.24 g and 0.37 g, respectively.
At the end of the test, blood was sampled from the rats and the blood ammonia level was measured.

[2] = gastric acid, digestive enzymes (Okazaki et al. 1991, 1992); cited from earlier work
[3] = use against hyperammonemia; cited from earlier work

Compound: OC1OC[C@@H](O[C@@H]2OC[C@@H](O)[C@H](O)[C@H]2O)[C@H](O)[C@H]1O (some centres unmarked) [xylobiose]
- effects on amounts of feed and water taken and increase in body weight ([1]; 0.5% and 1.0% xylobiose, throughout the 3-week test period): no effects
- blood ammonia level versus control group ([1]; 0.5% xylobiose in drinking water ad libitum for 3 weeks): lower than the value for the control group
- blood ammonia level versus control group ([1]; 1.0% xylobiose in drinking water ad libitum for 3 weeks, p<0.05): significantly low
- stability in the digestive tract [2]: can reach the large intestine without being decomposed with gastric acid or digestive enzymes

Compound: NC[C@@H]1O[C@H](O[C@H]2[C@@H](O)[C@H](O[C@@H]3[C@@H](O)[C@H](N)C[C@H](N)[C@H]3O[C@H]3O[C@H](CN)[C@@H](O)[C@H](O)[C@H]3N)O[C@@H]2CO)[C@H](N)[C@@H](O)[C@@H]1O [neomycin]
- documented side effects [3]: renal disorder and deafness
